# Laboratory results as given in patent US9833497B2, “Human originated EGF domain proteins and use of the same” (CHENGDU SOURCEBIO LIMITED-LIABILITY COMPANY, priority 2013, dated 2017).
# Legend:
# Type in all cases: cell-based
# [1] = test system: Serratia marcescens; assay: MIC against Gram-negative bacteria: Serratia marcescens; settings: 5×10^5 CFU/mL; for MIC against S. marcescens: Serratia marcescens, 96-well plate, 37° C., 10 h
# Method in brief: (§1)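 Read-out is absence of bacterial growth, with MIC set at the lowest recombinant protein concentration achieving it. Bacteria, pre-grown in LB to McFarland 0.5 and resuspended, were exposed at 5×10^5 CFU/mL to two-fold diluted human EGF domain proteins in triplicate at 37° C, 175 rpm.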
# [2] = test system: E. coli DH5α; assay: Antibacterial activity: MIC and growth curve against E. coli DH5α in 96-well plate; settings: minimal inhibitory concentration against E. coli DH5α; 96-well plate, 5×10^5 CFU/mL, 37° C., judged after 8 h
# Method in brief: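 MIC taken as lowest protein level with no bacterial growth, tracked by A600 every 30 min during 37 °C, 175 rpm culture. Two-fold protein series 50-12.5 μg/mL final, triplicate wells, against 5×10^5 CFU/mL of LB-washed mid-log cells.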
# [3] = test system: Citrobacter diversus; assay: MIC against Gram-negative bacteria: Citrobacter diversus; settings: 5×10^5 CFU/mL; for MIC against C. diversus: Citrobacter diversus, 96-well plate, 37° C., 10 h
# Method in brief: as §1
# [4] = test system: E. coli BL21; assay: MIC against Gram-negative bacteria: E. coli BL21; settings: 5×10^5 CFU/mL; for MIC against E. coli BL21: 96-well plate, 37° C., 10 h
# Method in brief: as §1
# [5] = test system: Pseudomonas aeruginosa; assay: MIC against Gram-negative bacteria: Pseudomonas aeruginosa; settings: 5×10^5 CFU/mL; for MIC against P. aeruginosa: Pseudomonas aeruginosa, 96-well plate, 37° C., 10 h
# Method in brief: as §1
# [6] = test system: Proteus mirabilis; assay: MIC against Gram-negative bacteria: Proteus mirabilis; settings: 5×10^5 CFU/mL; for MIC against P. mirabilis: Proteus mirabilis, 96-well plate, 37° C., 10 h
# Method in brief: as §1
# [7] = test system: Enterobacter cloacae; assay: MIC against Gram-negative bacteria: Enterobacter cloacae; settings: 5×10^5 CFU/mL; for MIC against E. cloacae: Enterobacter cloacae, 96-well plate, 37° C., 10 h
# Method in brief: as §1
# [8] = test system: Proteus vulgaris; assay: MIC against Gram-negative bacteria: Proteus vulgaris; settings: 5×10^5 CFU/mL; for MIC against P. vulgaris: Proteus vulgaris, 96-well plate, 37° C., 10 h
# Method in brief: as §1
# [9] = test system: Moraxella catarrhalis; assay: MIC against Gram-negative bacteria: Moraxella catarrhalis; settings: 5×10^5 CFU/mL; for MIC against M. catarrhalis: Moraxella catarrhalis, 96-well plate, 37° C., 10 h
# Method in brief: as §1
# [10] = test system: Aeromonas hydrophila; assay: MIC against Gram-negative bacteria: Aeromonas hydrophila; settings: 5×10^5 CFU/mL; for MIC against A. hydrophila: Aeromonas hydrophila, 96-well plate, 37° C., 10 h
# Method in brief: as §1
# [11] = test system: Klebsiella pneumonia; assay: MIC against Gram-negative bacteria: Klebsiella pneumonia; settings: 5×10^5 CFU/mL; for MIC against K. pneumonia: Klebsiella pneumonia, 96-well plate, 37° C., 10 h
# Method in brief: as §1
# [12] = 10 h cultivation at 37° C., two-fold serial dilution
Substance,MIC against S. marcescens [1] [µg/mL],MIC [2] [µg/mL],MIC against C. diversus [3] [µg/mL],MIC against E. coli BL21 [4] [µg/mL],MIC against P. aeruginosa [5] [µg/mL],MIC against P. mirabilis [6] [µg/mL],MIC against E. cloacae [7] [µg/mL],MIC against P. vulgaris [8] [µg/mL],MIC against M. catarrhalis [9] [µg/mL],MIC against A. hydrophila [10] [µg/mL],MIC (μg/mL) S. marcescens ([1]; 10 h cultivation at 37° C.) [µg/mL],MIC (μg/mL) C. diversus ([3]; 10 h cultivation at 37° C.) [µg/mL],MIC (μg/mL) E. coli BL21 ([4]; 10 h cultivation at 37° C.) [µg/mL],MIC (μg/mL) P. aeruginosa ([5]; 10 h cultivation at 37° C.) [µg/mL],MIC (μg/mL) P. mirabilis ([6]; 10 h cultivation at 37° C.) [µg/mL],MIC (μg/mL) E. cloacae ([7]; 10 h cultivation at 37° C.) [µg/mL],MIC (μg/mL) P. vulgaris ([8]; 10 h cultivation at 37° C.) [µg/mL],MIC (μg/mL) M. catarrhalis ([9]; 10 h cultivation at 37° C.) [µg/mL],MIC (μg/mL) A. hydrophila ([10]; 10 h cultivation at 37° C.) [µg/mL],MIC (μg/mL) K. pneumonia ([11]; 10 h cultivation at 37° C.) [µg/mL],other results
PRT1217 (EITACFPNPCRNGGSCDPIGNTFICNCKAGLTGVTCE; listed as Homo sapiens),12.5,50,25,12.5,50,50,25,25,12.5,50,,,,,,,,,,,MIC against K. pneumonia [11]: 12.5 µg/mL
PRT224 (DVNECDMGAPCEQRCFNSYGTFLCRCHQGYELHRDGFSCS; listed as Homo sapiens),,25,,,,,,,,,50,12.5,12.5,25,12.5,12.5,12.5,12.5,12.5,12.5,
PRT232 (DIDECRQDPSTCGPNSICTNALGSYSCGCIAGFHPNPEGSQKDGNFSCQ; listed as Homo sapiens),,25,,,,,,,,,25,25,12.5,25,25,25,12.5,12.5,12.5,12.5,
PRT1143 (NLDECLSEPCLHDGVCIDGINHYTCDCKSGFFGTHCE; listed as Homo sapiens),,12.5,,,,,,,,,,,,,,,,,,,"MIC S. marcescens [1, 12]: 12.5 µg/mL; MIC C. diversus [3, 12]: 12.5 µg/mL; MIC E. coli BL21 [4, 12]: 25 µg/mL; MIC P. aeruginosa [5, 12]: 50 µg/mL; MIC P. mirabilis [6, 12]: 12.5 µg/mL; MIC E. cloacae [7, 12]: 12.5 µg/mL; MIC P. vulgaris [8, 12]: 50 µg/mL; MIC M. catarrhalis [9, 12]: 50 µg/mL; MIC A. hydrophila [10, 12]: 50 µg/mL; MIC K. pneumonia [11, 12]: 25 µg/mL"
PRT240 (NINECEVEPCKNGGICTDLVANYSCECPGEFMGRNCQ; listed as Homo sapiens),,25,,,,,,,,,12.5,25,12.5,25,100,25,100,12.5,12.5,12.5,
PRT1296 (GCEPCHKKVCAHGTCQPSSQAGFTCECQEGWMGPLCD; listed as Homo sapiens),25,50,50,12.5,25,25,25,50,12.5,100,,,,,,,,,,,MIC against K. pneumonia [11]: 50 µg/mL
